Results as given in patent publication EP4592296A1, “NOVEL TETRAHETEROCYCLE COMPOUND” (Idience Co., Ltd., priority 2022, dated 2024).

Assays:
[1] = system: AsPC-1 pancreatic cancer (KRAS G12D mutation) cells; experiment: Cell proliferation assay (CellTiter-Glo cell viability); type: cell-based; conditions: AsPC-1 cells, CellTiter-Glo 2.0
Experimental: (§1) Cell viability test of test compounds in AsPC-1 pancreatic cancer (KRAS G12D mutation) or SW480 colon cancer (KRAS G12V mutation) cells for 72 hours
(§2) The reference compound Staurosporine was purchased from Sigma-Aldrich (Saint Louis, […]), and CellTiter-Glo® 2.0 Luminescent cell viability assay reagent (cat# G9243) was purchased from Promega (Madison, WI). AsPC-1 and SW480 cell lines were purchased from the American Type Culture Collection (Manassas, VA). AsPC-1 cells were cultured in RPMI-1640 (ATCC, cat#30-2001), and SW480 cells were cultured in DMEM (ATCC cat#30-2002), supplemented with 10% FBS (Sigma-Aldrich, cat#F2442) and 100 µg/mL penicillin-streptomycin (Sigma-Aldrich, cat#P4333). Cells were cultured at 37 °C in a humidified atmosphere of 5 % CO2 and 95 % air.
(§3) • 1. The test compound and reference compound Staurosporine were dissolved in DMSO solution to prepare 20 mM (test compound) and 10 mM (reference compound Staurosporine) in the Source Plate, and diluted 3-fold and 10 doses with DMSO. • 2. Ten volumes of 125 nL test compound or 25 nL reference compound from the Source Plate were dispensed into wells of a 384-well culture plate (VWR, cat#82050-076) using an Echo 655. • 3. 25 µL of culture medium including 2000 AsPC-1 or SW480 cells was dispensed into each 384-well cell culture plate. • 4. Cells were cultured with compounds at 37 °C, 5 % CO2for 72 hours. • 5. 25 µL of CellTiter-Glo 2.0 reagent was added to each well of the plate. • 6. The contents were mixed in an orbital shaker for 2 minutes and the luminescence signal was stabilized at room temperature for 15 minutes. • 7. Luminescence signals were measured with an Envision 2104 Multilabel Reader (PerkinElmer, Santa Clara, CA), and the number of viable cells was determined by quantifying the ATP present in each culture medium. • 8. IC50 values were calculated based on the sigmoidal dose-response equation in the GraphPad Prism 4 program.

[2] = molecular target: T1, KRAS^WT (Homo sapiens, UniProt P01116); experiment: KRAS nucleotide exchange assay (SOS1-mediated, HTRF); type: biochemical; conditions: KRAS 20 nM, SOS1 7.5 nM, labeled GTP 0.15 µM
T1 construct: GST-tagged KRAS WT or mutant proteins (amino acids 2-169)
T1 sequence (P01116 2-169 isoform P01116-2): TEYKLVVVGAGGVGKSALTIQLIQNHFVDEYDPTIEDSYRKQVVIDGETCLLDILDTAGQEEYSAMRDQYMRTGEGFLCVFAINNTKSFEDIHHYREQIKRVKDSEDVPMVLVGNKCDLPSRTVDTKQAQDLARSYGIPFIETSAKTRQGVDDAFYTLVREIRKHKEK
Source text: (§4) Evaluation of the inhibitory effect of compounds on SOS1-mediated nucleotide exchange activity of KRAS^WT, KRAS^G12D, and KRAS^G12V mutants
(§5) A method to monitor SOS1-mediated exchange of unlabeled KRAS-bound GDP and fluorescently labeled GTP, based on energy transfer between the donor Tb cryptate-labeled GST antibody and the acceptor DY-647P1 GTP when they are in close proximity.
(§6) • GST-tagged KRAS WT or mutant proteins (amino acids 2-169), • SOS1(amino acids 564-1049), • Labeled GTP (GTP-DY-647P1), • Assay Buffer (20 mM HEPES pH 7.4, 150 mM NaCl, 5 mM MgCl2, 1 mM DTT, 0.05% BSA, 0.0025% NP40)
(§7) • 1. KRAS protein was diluted with assay buffer to 1.5 times the final concentration, mixed with Tb cryptate anti-GST antibody, and 10 µL was added to each assay well (final concentration was 20 nM for KRAS^WT, KRAS^G12D, and KRAS^G12V). • 2. The compound was dissolved in DMSO and then diluted to prepare 100 times the final concentration. • 3. Compounds were dispensed into assay wells using an ECHO acoustic dispenser (Beckman), gently mixed with the KRAS/Ab mixture, and incubated for 60 minutes. • 4. SOS1 and labeled GTP were mixed and diluted to 3 times the final concentration with assay buffer, and 5 µL of the solution was added to the assay well to initiate the reaction (final concentration of labeled GTP was 0.15 µM, final concentration of SOS1 was 7.5 nM in WT, 12.5 nM in G12D, and 50 nM in G12V). Blank wells contained only assay buffer and labeled GTP. • 5. The reaction was monitored at Ex/Em=(337/665; 337/620) using a Pherastar Plate Reader (BMG). • 6. The HTRF signal was analyzed approximately 25 minutes after the start of the reaction (G12V reacted for 60 minutes). • 7. Nucleotide exchange activity was expressed as a percentage difference compared to the DMSO reaction value, and the IC50 value was calculated based on the four-parameter logistic equation in GraphPad 4.0 software. HTRF signal = ems 665/ems 620∗10000 [formula]

[3] = molecular target: T2, KRAS^G12D (Homo sapiens, UniProt P01116, G12D); experiment: as above; type: biochemical; conditions: KRAS 20 nM, SOS1 12.5 nM, labeled GTP 0.15 µM, 60 min preincubation
T2 construct: GST-tagged KRAS WT or mutant proteins (amino acids 2-169)
T2 sequence (P01116 2-169 isoform P01116-2 G12D): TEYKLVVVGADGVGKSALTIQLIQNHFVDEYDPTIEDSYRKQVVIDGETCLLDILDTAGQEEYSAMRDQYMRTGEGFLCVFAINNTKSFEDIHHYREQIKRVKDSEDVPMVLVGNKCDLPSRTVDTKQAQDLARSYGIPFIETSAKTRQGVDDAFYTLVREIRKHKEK
Source text: as §4, §5, §6, §7

[4] = molecular target: T3, KRAS^G12V (Homo sapiens, UniProt P01116, G12V); experiment: as above; type: biochemical; conditions: KRAS 20 nM, SOS1 50 nM, labeled GTP 0.15 µM, reacted 60 minutes
T3 construct: GST-tagged KRAS WT or mutant proteins (amino acids 2-169)
T3 sequence (P01116 2-169 isoform P01116-2 G12V): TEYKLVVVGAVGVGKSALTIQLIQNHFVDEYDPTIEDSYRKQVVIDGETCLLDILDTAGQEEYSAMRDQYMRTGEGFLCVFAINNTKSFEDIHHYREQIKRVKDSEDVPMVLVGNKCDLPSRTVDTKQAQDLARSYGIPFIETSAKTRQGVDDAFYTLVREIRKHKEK
Source text: as §4, §5, §6, §7

[5] = system: SW480 colon cancer (KRAS G12V mutation) cells; experiment: Cell proliferation assay (CellTiter-Glo cell viability); type: cell-based; conditions: Homo sapiens, 72 hours, CellTiter-Glo 2.0
Experimental: as §1, §2, §3

[6] = molecular target: T4, KRAS G12C (Homo sapiens, UniProt P01116, G12C); experiment: KRAS nucleotide exchange assay (SOS1-mediated, HTRF); type: biochemical; conditions: conditions for G12C not described
T4 construct: GST-tagged KRAS WT or mutant proteins (amino acids 2-169)
T4 sequence (P01116 2-169 isoform P01116-2 G12C): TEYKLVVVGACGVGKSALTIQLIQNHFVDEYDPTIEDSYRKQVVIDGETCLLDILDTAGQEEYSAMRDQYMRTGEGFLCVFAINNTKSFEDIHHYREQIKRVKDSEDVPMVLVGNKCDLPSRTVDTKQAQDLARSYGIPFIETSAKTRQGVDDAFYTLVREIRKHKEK

[7] = molecular target: T5, KRAS G13D (Homo sapiens, UniProt P01116, G13D); experiment: as above; type: biochemical; conditions: conditions for G13D not described
T5 construct: GST-tagged KRAS WT or mutant proteins (amino acids 2-169)
T5 sequence (P01116 2-169 isoform P01116-2 G13D): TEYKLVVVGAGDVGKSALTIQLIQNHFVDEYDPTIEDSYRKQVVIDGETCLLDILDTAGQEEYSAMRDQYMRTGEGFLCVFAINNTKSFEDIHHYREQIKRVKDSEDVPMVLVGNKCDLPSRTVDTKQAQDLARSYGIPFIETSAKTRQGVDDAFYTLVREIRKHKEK

SMILES	IC50 ([1]; Homo sapiens, ASPC1, 72 h) [µM]	IC50 [3] [µM]	also measured
N#Cc1c(N)sc2c(F)ccc(-c3c(Cl)c4c5c(nc(OC[C@@]67CCCN6C[C@H](F)C7)nc5c3F)N3CCCCC[C@@H]3CO4)c12 [Example 11a, 2-amino-4-(3-chloro-1-fluoro-13-(((2R,7aS)-2-fluorotetrahydro-1H-pyrrolizin-7a(5H)-yl)methoxy)-5a,6,7,8,9,10-hexahydro-5H-azepino[2',1':3,4][1,4]oxazepino[5,6,7-de]quinazolin-2-yl)-7-fluorobenzo[b]thiophene-3-carbonitrile]	2 to 20		
CCc1c(F)ccc2cc(O)cc(-c3nc4c5c(nc(OC[C@@]67CCCN6C[C@H](F)C7)nc5c3F)N3CCNC[C@@H]3CCO4)c12 [Example 1, 5-ethyl-6-fluoro-4-((S)-1-fluoro-12-(((2R,7aS)-2-fluorotetrahydro-1H-pyrrolizin-7a(5H)-yl)methoxy)-6,6a,7,8,9,10-hexahydro-5H-4-oxa-3,8,10a,11,13-pentaazabenzo[4,5]cycloocta[1,2,3-de]naphthalen-2-yl)naphthalen-2-ol]	> 20	0.00595	IC50 [2]: 0.0065 µM
Nc1nc2c(-c3c(Cl)c4c5c(nc(OC[C@@]67CCCN6C[C@H](F)C7)nc5c3F)N3CCNC[C@@H]3CCO4)ccc(F)c2s1 [Example 3, 4-((14aS)-11-chloro-9-fluoro-7-(((2R,7aS)-2-fluorotetrahydro-1H-pyrrolizin-7a(5H)-yl)methoxy)-1,3,4,13,14,14a-hexahydro-2H-pyrazino[1',2':5,6][1,5]oxazocino[4,3,2-de]quinazolin-10-yl)-7-fluorobenzo[d]thiazol-2-amine]	2 to 20	0.00784	
Oc1cc(Cl)c(C2CC2)c(-c2nc3c4c(nc(OCC56CCCN5CC(F)C6)nc4c2F)N2CCNCC2CCO3)c1 [Example 4, 3-chloro-4-cyclopropyl-5-((S)-1-fluoro-12-(((2R,7aS)-2-fluorotetrahydro-1H-pyrrolizin-7a(5H)-yl)methoxy)-6,6a,7,8,9,10-hexahydro-5H-4-oxa-3,8,10a,11,13-pentaazabenzo[4,5]cycloocta[1,2,3-de]naphthalen-2-yl)phenol]		0.0525	
C#Cc1c(F)ccc2cc(O)cc(-c3nc4c5c(nc(OC[C@@]67CCCN6C[C@H](F)C7)nc5c3F)N3CCNC[C@@H]3CCO4)c12 [Example 2, 5-ethynyl-6-fluoro-4-((S)-1-fluoro-12-(((2R,7aS)-2-fluorotetrahydro-1H-pyrrolizin-7a(5H)-yl)methoxy)-6,6a,7,8,9,10-hexahydro-5H-4-oxa-3,8,10a,11,13-pentaazabenzo[4,5]cycloocta[1,2,3-de]naphthalen-2-yl)naphthalen-2-ol]	> 20	0.00275	IC50 [4]: 0.00289 µM; IC50 [5]: > 20 µM
N#Cc1c(N)sc2c(F)ccc(-c3c(Cl)c4c5c(nc(OC[C@@]67CCCN6C[C@H](F)C7)nc5c3F)N3CCCCC[C@H]3CO4)c12 [Example 11b, 2-amino-4-(3-chloro-1-fluoro-13-(((2R,7aS)-2-fluorotetrahydro-1H-pyrrolizin-7a(5H)-yl)methoxy)-5a,6,7,8,9,10-hexahydro-5H-azepino[2',1':3,4][1,4]oxazepino[5,6,7-de]quinazolin-2-yl)-7-fluorobenzo[b]thiophene-3-carbonitrile]	< 2		
Nc1nc2c(-c3c(Cl)c4c5c(nc(OC[C@@]67CCCN6C[C@H](F)C7)nc5c3F)N3CCCOC[C@H]3CO4)ccc(F)c2s1 [Example 7, 4-((14aS)-12-chloro-10-fluoro-8-(((2R,7aS)-2-fluorotetrahydro-1H-pyrrolizin-7a(5H)-yl)methoxy)-4,5,14,14a-tetrahydro-1H,3H-[1,4]oxazepino[3',4':3,4][1,4]oxazepino[5,6,7-de]quinazolin-11-yl)-7-fluorobenzo[d]thiazol-2-amine]	< 2		
CCc1c(F)ccc2cc(O)cc(-c3nc4c5c(nc(OC[C@@]67CCCN6C[C@H](F)C7)nc5c3F)N3CCNC[C@@H]3CC(C)O4)c12 (stereo partly drawn) [Example 5, 5-ethyl-6-fluoro-4-((6aS)-1-fluoro-12-(((2R,7aS)-2-fluorotetrahydro-1H-pyrrolizin-7a(5H)-yl)methoxy)-5-methyl-6,6a,7,8,9,10-hexahydro-5H-4-oxa-3,8,10a,11,13-pentaazabenzo[4,5]cycloocta[1,2,3-de]naphthalen-2-yl)naphthalen-2-ol]		0.0125	
N#Cc1c(N)sc2c(F)ccc(-c3c(Cl)c4c5c(nc(OC[C@@]67CCCN6C[C@H](F)C7)nc5c3F)N3CCCOC[C@H]3CO4)c12 (single isomer, unassigned) [Example 12a]			IC50 ([1]; 72 hours): 2 to 20 µM
Nc1nc2c(-c3c(Cl)c4c5c(nc(OC[C@@]67CCCN6C[C@H](F)C7)nc5c3F)N3CCCCCC3CO4)ccc(F)c2s1 (stereo partly drawn) [Example 6, 4-(3-chloro-1-fluoro-13-(((2R,7aS)-2-fluorotetrahydro-1H-pyrrolizin-7a(5H)-yl)methoxy)-5a,6,7,8,9,10-hexahydro-5H-azepino[2',1':3,4][1,4]oxazepino[5,6,7-de]quinazolin-2-yl)-7-fluorobenzo[d]thiazol-2-amine]	< 2	0.0059	IC50 [6]: 0.00236 µM; IC50 [4]: 0.0059 µM; IC50 [7]: 0.0111 µM
N#Cc1c(N)sc2c(F)ccc(-c3c(Cl)c4c5c(nc(OC[C@@]67CCCN6C[C@H](F)C7)nc5c3F)N3CCCOC[C@H]3CO4)c12 (single isomer, unassigned) [Example 12b]	< 2		
